IC50 data for one compound are collected here from patent US20080070866A1, “Chemical compounds” (Praecis Pharmaceuticals Incorporated, priority 2006, published 2008).

In the assay the target is T1, S1P-1 receptor (Homo sapiens, UniProt P21453).
T1 construct: expressed in transfected cells; host or cells: HEK 293 T cells (membrane preparation)
As to the kind of experiment: [33P]sphingosine 1-phosphate binding assay on membranes of transfected HEK 293 T cells. As to conditions: [33P]S1P binding, receptor taken from context of b294. The procedure: In certain embodiments, the compounds of the invention selective for the S1P-1 receptor as compared to one or more of the other S1P receptors. For example, one set of compounds includes compounds which are selective for the S1P-1 receptor relative to the S1P-3 receptor. […] The EC50 of a compound is determined using the ^35S-GTPγS binding assay, as described in WO 03/061567, the entire contents of which are incorporated herein by reference. […] The IC50 of a compound is determined using the [^33P]sphingosine 1-phosphate binding assay, as described in Davis, M. D. et al., Sphingosine 1-Phosphate Analogs as Receptor Antagonists. J. Biol. Chem. (2005) 280:9833-9841, the entire contents of which are incorporated herein by this reference.
The terms “agonist” or “S1P-1 receptor agonist” as used herein include the compounds described herein which bind to and/or agonize the S1P-1 receptor. […] The compounds' IC50 for the S1P1 receptor can be measured using the binding assays described in Example 13 or those described in WO 03/061567.
The ability of several of the compounds described herein to bind to the S1P-1 or S1P-3 receptor was also tested as follows.
For the membrane preparation, plasmid DNA was transfected into HEK 293 T cells using the FuGENE 6 transfection protocol (publicly available from Roche). […] Protein concentration was determined spectroscopically by Bradford protein assay. […]

T1 sequence (P21453 whole entry): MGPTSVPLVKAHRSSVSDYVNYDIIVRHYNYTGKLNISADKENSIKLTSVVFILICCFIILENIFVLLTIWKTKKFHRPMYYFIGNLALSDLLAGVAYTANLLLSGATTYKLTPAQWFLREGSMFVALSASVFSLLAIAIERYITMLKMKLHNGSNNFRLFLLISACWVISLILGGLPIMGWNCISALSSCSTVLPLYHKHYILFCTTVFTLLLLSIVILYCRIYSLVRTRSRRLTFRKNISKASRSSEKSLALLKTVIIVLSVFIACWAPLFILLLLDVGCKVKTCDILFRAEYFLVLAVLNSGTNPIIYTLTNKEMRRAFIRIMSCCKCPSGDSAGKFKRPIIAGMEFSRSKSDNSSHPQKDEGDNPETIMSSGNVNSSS

In turn, `CCCCCOCCOc1ccc(-c2nnc([C@@](C)(N)CO)s2)cc1C(F)(F)F` returned an IC50 of 2.17 nM.
